Source: US10463658B2, “Method of inhibiting FLT3 kinase” (AROG Pharmaceuticals, LLC, priority 2013, dated 2019)
Changes are numbered by the printed parent chain.

Experiments:
FLT3 non-autoinhibited = biological target: T1, FLT3 non-autoinhibited (Homo sapiens, UniProt P36888); assay: KINOMEscan KdElect competitive binding assay, non-autoinhibited FLT3; conditions: tosylate salt
T1 construct: host or cells: E. coli BL21-derived host (T7 phage) or HEK-293
T1 sequence (P36888 610-943 limits assumed): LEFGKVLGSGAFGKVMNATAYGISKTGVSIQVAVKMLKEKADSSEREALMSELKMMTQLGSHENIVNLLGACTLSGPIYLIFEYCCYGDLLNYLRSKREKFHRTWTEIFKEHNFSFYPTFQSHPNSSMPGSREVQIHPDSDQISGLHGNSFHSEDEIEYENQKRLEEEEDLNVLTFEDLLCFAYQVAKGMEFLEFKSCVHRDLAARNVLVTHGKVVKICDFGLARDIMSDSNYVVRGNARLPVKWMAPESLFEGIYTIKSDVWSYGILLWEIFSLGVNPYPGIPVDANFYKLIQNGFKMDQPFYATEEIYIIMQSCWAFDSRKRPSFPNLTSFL
Source text: (§1) Competitive binding assay.
(§2) The lysates were then centrifuged and filtered.

FLT3 D835Y = biological target: T2, FLT3 D835Y (Homo sapiens, UniProt P36888, D835Y); assay: KINOMEscan KdElect competitive binding assay, FLT3 D835Y; conditions: tosylate salt
T2 construct: host or cells: E. coli BL21-derived host (T7 phage) or HEK-293
T2 sequence (P36888 610-943 D835Y limits assumed): T1 sequence (P36888 610-943 limits assumed) with D226Y
Source text: as §1, §2

FLT3 R834Q = biological target: T3, FLT3 R834Q (Homo sapiens, UniProt P36888, R834Q); assay: KINOMEscan KdElect competitive binding assay, FLT3 R834Q; conditions: tosylate salt; read-out: Binding Constant (Kd), FLT3 R834Q
T3 construct: host or cells: E. coli BL21-derived host (T7 phage) or HEK-293
T3 sequence (P36888 610-943 R834Q limits assumed): T1 sequence (P36888 610-943 limits assumed) with R225Q
Source text: as §1, §2

[1] = test system: Molm 13-RES-luc cells that expressed FLT3-ITD/D835Y; assay: MTT assay in tandutinib-resistant Molm 13-RES-luc cells; assay type: cell-based; conditions: Homo sapiens, tandutinib resistant Molm 13 cells, mean of 3 studies with 6 replicates each (n=18), read-out: IC50 pFLT3 (text: cell viability, MTT assay)
FLT3 ITD = biological target: T4, FLT3 ITD (Homo sapiens, UniProt P36888); conditions: read-out: Binding Constant (Kd), FLT3 ITD; CP-673,451 as tosylate salt
T4 sequence (P36888 1-993): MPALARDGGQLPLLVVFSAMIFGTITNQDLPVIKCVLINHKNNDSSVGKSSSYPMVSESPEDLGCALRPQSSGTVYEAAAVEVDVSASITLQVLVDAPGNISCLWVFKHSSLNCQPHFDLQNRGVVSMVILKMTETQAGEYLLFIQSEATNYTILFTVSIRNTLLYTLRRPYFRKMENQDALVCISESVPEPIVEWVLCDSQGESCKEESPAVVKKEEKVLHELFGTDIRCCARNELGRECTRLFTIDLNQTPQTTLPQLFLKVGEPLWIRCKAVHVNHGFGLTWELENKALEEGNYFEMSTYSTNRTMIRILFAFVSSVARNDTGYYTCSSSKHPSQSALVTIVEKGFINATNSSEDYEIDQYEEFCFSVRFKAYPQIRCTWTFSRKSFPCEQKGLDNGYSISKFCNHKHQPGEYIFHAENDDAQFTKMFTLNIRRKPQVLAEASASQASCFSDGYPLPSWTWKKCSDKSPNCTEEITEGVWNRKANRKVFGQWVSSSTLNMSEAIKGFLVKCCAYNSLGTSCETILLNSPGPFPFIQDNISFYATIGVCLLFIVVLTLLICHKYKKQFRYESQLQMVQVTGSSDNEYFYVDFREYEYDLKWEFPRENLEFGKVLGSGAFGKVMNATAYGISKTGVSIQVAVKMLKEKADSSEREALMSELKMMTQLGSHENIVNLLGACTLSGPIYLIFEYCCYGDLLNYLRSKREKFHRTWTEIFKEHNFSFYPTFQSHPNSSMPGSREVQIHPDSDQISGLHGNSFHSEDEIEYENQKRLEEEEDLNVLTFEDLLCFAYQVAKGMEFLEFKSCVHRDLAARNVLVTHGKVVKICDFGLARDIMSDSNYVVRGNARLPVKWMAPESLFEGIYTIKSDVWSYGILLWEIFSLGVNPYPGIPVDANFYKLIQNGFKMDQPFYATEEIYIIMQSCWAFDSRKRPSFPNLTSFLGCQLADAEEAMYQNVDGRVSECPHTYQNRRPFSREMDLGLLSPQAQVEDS

COCCOc1ccc2c(c1)ncn2-c1ccc2cccc(N3CCC(N)CC3)c2n1 [CP-673,451]
affinity shift between the non-autoinhibited and autoinhibited states of FLT3 (FLT3 non-autoinhibited): approximately 50 fold
Kd (FLT3 non-autoinhibited; average Kd, read-out: Binding Constant (Kd), FLT3 non-autoinhibited): 0.35 nM
Kd (FLT3 D835Y): 0.1 nM
Kd (FLT3 R834Q): 0.65 nM
IC50 [1]: 3.3 nM
Kd (FLT3 ITD): 0.25 nM
